These results are taken from ChEMBL document CHEMBL4831520, “Discovery of First-in-Class Dual PARP and EZH2 Inhibitors for Triple-Negative Breast Cancer with Wild-Type BRCA” (J Med Chem, 2021).

In experiment [1] the test system is MDA-MB-468. Kind of experiment: cells. Format: functional, cell-based. The note with it: Homo sapiens, MDA-MB-468, 72 h.
Description: Antiproliferative activity against human MDA-MB-468 cells assessed as cell viability after 72 hrs by MTT assay
Experiment [2] concerns MCF7. Description: cells. The note with it: Homo sapiens, MCF7, 72 h. The experiment is classed as functional, cell-based.
Description: Antiproliferative activity against human MCF7 cells assessed as cell viability after 72 hrs by MTT assay
The test system of experiment [3] is MCF-10A. Kind of experiment: cells. The experiment is classed as ADME, cell-based. The note with it: Homo sapiens, 72 h.
Description: Antiproliferative activity against human MCF-10A cells assessed as cell viability after 72 hrs by MTT assay
The subject of experiment [4] is MDA-MB-231. Kind of experiment: cells. The experiment is classed as functional, cell-based. The note with it: Homo sapiens, MDA-MB-231, 72 h.
Description: Antiproliferative activity against human MDA-MB-231 cells assessed as cell viability after 72 hrs by MTT assay
In experiment [5] the target is T1, Histone-lysine N-methyltransferase EZH2 (Homo sapiens, UniProt Q15910).
Target sequence in this assay (Q15910 whole entry): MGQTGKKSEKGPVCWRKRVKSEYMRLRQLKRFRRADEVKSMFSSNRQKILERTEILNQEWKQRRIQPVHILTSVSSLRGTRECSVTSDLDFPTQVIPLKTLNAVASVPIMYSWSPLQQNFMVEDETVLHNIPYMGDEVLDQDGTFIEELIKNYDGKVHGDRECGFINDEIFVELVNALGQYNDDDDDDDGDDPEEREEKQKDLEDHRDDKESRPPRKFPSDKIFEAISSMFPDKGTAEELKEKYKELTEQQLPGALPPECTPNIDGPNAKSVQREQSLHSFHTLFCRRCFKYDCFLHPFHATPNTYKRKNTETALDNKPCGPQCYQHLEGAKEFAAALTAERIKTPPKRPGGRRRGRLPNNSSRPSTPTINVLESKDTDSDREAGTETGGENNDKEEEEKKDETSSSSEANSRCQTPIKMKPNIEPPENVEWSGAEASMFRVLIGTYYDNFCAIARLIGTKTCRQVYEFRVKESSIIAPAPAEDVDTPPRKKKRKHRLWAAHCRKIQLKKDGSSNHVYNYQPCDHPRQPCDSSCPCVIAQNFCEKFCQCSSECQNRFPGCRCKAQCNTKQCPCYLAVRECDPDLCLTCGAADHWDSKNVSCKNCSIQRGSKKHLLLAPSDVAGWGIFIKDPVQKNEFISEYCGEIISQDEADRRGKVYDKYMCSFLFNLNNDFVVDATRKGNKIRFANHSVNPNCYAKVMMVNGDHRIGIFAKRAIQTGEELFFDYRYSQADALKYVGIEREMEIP
Description: Inhibition of recombinant PRC2 complex (unknown origin) assessed as kd/ka using H3K27me0 peptide substrate incubated for 3 hrs by HMT assay
The target in experiment [6] is T1, Histone-lysine N-methyltransferase EZH2. This is another data set of the same source.
Target sequence in this assay (Q15910 whole entry): as above
Description: Inhibition of recombinant PRC2 complex (unknown origin) assessed as dissociation rate constant using H3K27me0 peptide substrate incubated for 3 hrs by HMT assay
For experiment [7] the target is unchanged. The note with it: time 3.0 hrs.
Target sequence in this assay (Q15910 whole entry, looked up): as the sequence (Q15910 whole entry) above

Usually IC50 stands for the concentration that gives 50% inhibition. Take `Cc1cc(C)c(CNC(=O)c2cc(-c3ccc(N4CCN(C(=O)c5cc(Cc6n[nH]c(=O)c7ccccc67)ccc5F)CC4)nc3)cc(N(C)C)c2C)c(=O)[nH]1`: the IC50 in experiment [1] was 15.2 µM; in experiment [2] it was 38 µM; in experiment [3], greater than 50 µM; in experiment [4], 23.2 µM.

Turning to `Cc1cc(C)c(CNC(=O)c2cc(-c3ccc(N4CCN(C(=O)c5cc(Cc6n[nH]c(=O)c7ccccc67)ccc5F)CC4)nc3)cc([N+](=O)[O-])c2C)c(=O)[nH]1`, the IC50 in experiment [1], in experiment [2], in experiment [3] and in experiment [4] was greater than 50 µM each time.

With `Cc1cc(C)c(CNC(=O)c2cc(-c3ccc(N4CCN(C(=O)c5cc(Cc6n[nH]c(=O)c7ccccc67)ccc5F)CC4)nc3)cc3c2cnn3C(=O)N(C)C)c(=O)[nH]1`, the half-inhibitory concentration (IC50) in experiment [1], in experiment [2], in experiment [3] and in experiment [4] was greater than 50 µM in each case.

As to `CCN(c1cc(-c2ccc(N3CCN(C(=O)c4cc(Cc5n[nH]c(=O)c6ccccc56)ccc4F)CC3)nc2)cc(C(=O)NCc2c(C)cc(C)[nH]c2=O)c1C)C1CCOCC1`, the IC50 in experiment [1], in experiment [2], in experiment [3] and in experiment [4] was greater than 50 µM each time.

Take `CCC(=O)Nc1cc(-c2ccc(N3CCN(C(=O)c4cc(Cc5n[nH]c(=O)c6ccccc56)ccc4F)CC3)nc2)cc(C(=O)NCc2c(C)cc(C)[nH]c2=O)c1C`: the Kd turned out to be 18.37 s⁻¹ in experiment [5] and 0.09155 s⁻¹ in experiment [6]. In addition, the IC50 in experiment [1] is 0.33 µM; in experiment [2], 17.7 µM; in experiment [3], greater than 50 µM; in experiment [4] it was 8.72 µM. The Ka in experiment [7] was 4.98 10^6/M/s.

In the case of `CCC(=O)N(CC)c1cc(-c2ccc(N3CCN(C(=O)c4cc(Cc5n[nH]c(=O)c6ccccc56)ccc4F)CC3)nc2)cc(C(=O)NCc2c(C)cc(C)[nH]c2=O)c1C`, the figures for the Kd in experiment [5] and in experiment [6] were 31.74 s⁻¹ and 0.02027 s⁻¹, respectively. The IC50 in experiment [1] is 2.11 µM; in experiment [2], 18.2 µM; in experiment [3] it was greater than 50 µM; in experiment [4], 2.82 µM. Also, in experiment [7], the Ka was 6.39 10^5/M/s.

In the case of `Cc1cc(C)c(CNC(=O)c2cccc(-c3ccc(N4CCN(C(=O)c5cc(Cc6n[nH]c(=O)c7ccccc67)ccc5F)CC4)nc3)c2)c(=O)[nH]1`, the IC50 in experiment [1] was 29.7 µM; in experiment [2], 48.4 µM; in experiment [3] it was greater than 50 µM; in experiment [4], 25 µM.

Regarding `C=CCn1ncc2c(C(=O)NCc3c(C)cc(C)[nH]c3=O)cc(-c3ccc(N4CCN(C(=O)c5cc(Cc6n[nH]c(=O)c7ccccc67)ccc5F)CC4)nc3)cc21`, the IC50 in experiment [1], in experiment [2], in experiment [3] and in experiment [4] was greater than 50 µM in each case.

Consider `COC1CCN(C(=O)c2cc(Cc3n[nH]c(=O)c4ccccc34)ccc2F)CC1` [AZD2461], for which the IC50 in experiment [1] was 35.6 µM; in experiment [2], greater than 50 µM; in experiment [3] it was greater than 50 µM; in experiment [4], 36.9 µM.

As to `COc1cc(C)c(C(=O)NCc2c(C)cc(C)[nH]c2=O)cc1-c1ccc(N2CCN(C(=O)c3cc(Cc4n[nH]c(=O)c5ccccc45)ccc3F)CC2)nc1`, the IC50 is 1940 µM in experiment [1], 44.2 µM in experiment [2], greater than 50 µM in experiment [3] and 26.1 µM in experiment [4].

For the molecule `CCCC(=O)Nc1cc(-c2ccc(N3CCN(C(=O)c4cc(Cc5n[nH]c(=O)c6ccccc56)ccc4F)CC3)nc2)cc(C(=O)NCc2c(C)cc(C)[nH]c2=O)c1C`, the IC50 in experiment [1] was 3.89 µM; in experiment [2], 33.2 µM; in experiment [3] it was greater than 50 µM; in experiment [4], 26.1 µM.

Turning to `Cc1cc(C)c(CNC(=O)c2cc(-c3ccc(N4CCN(C(=O)c5cc(Cc6n[nH]c(=O)c7ccccc67)ccc5F)CC4)nc3)cc(N)c2C)c(=O)[nH]1`, the IC50 was 12.1 µM in experiment [1], 37.4 µM in experiment [2], greater than 50 µM in experiment [3] and 1920 µM in experiment [4].

Take `C=C(C)C(=O)N(CC)c1cc(-c2ccc(N3CCN(C(=O)c4cc(Cc5n[nH]c(=O)c6ccccc56)ccc4F)CC3)nc2)cc(C(=O)NCc2c(C)cc(C)[nH]c2=O)c1C`: the Kd in experiment [5] worked out at 38.77 s⁻¹; in experiment [6], 0.04302 s⁻¹. The IC50 in experiment [1] was 2.78 µM; in experiment [2] it was 21.2 µM; in experiment [3], greater than 50 µM; in experiment [4] it was 8.73 µM. For the same molecule, in experiment [7], the Ka was 1.11 10^6/M/s.

With `Cc1cc(C(=O)NCc2c(C)cc(C)[nH]c2=O)cc(-c2ccc(N3CCN(C(=O)c4cc(Cc5n[nH]c(=O)c6ccccc56)ccc4F)CC3)nc2)c1`, the IC50 is 32.5 µM in experiment [1], greater than 50 µM in experiment [2], greater than 50 µM in experiment [3] and greater than 50 µM in experiment [4].

For the molecule `Cc1cc(C)c(CNC(=O)c2cc(-c3ccc(N4CCN(C(=O)c5cc(Cc6n[nH]c(=O)c7ccccc67)ccc5F)CC4)nc3)cc(NC(=O)CC(C)C)c2C)c(=O)[nH]1`, the Kd in experiment [5] was 25.46 s⁻¹; in experiment [6], 0.1116 s⁻¹. Further, the IC50 was 0.76 µM in experiment [1], 20 µM in experiment [2], greater than 50 µM in experiment [3] and 9.42 µM in experiment [4]. The Ka in experiment [7] is 4.54 10^6/M/s.

Regarding `Cc1cc(C)c(CNC(=O)c2cc(-c3ccc(N4CCN(C(=O)c5cc(Cc6n[nH]c(=O)c7ccccc67)ccc5F)CC4)nc3)cc3c2ccn3C(C)C)c(=O)[nH]1`, the IC50 in experiment [1] was 21.6 µM; in experiment [2] it was 47.5 µM; in experiment [3], greater than 50 µM; in experiment [4] it was 33.5 µM.

Consider `Cc1cc(C)c(CNC(=O)c2cc(-c3ccc(N4CCN(C(=O)c5cc(Cc6n[nH]c(=O)c7ccccc67)ccc5F)CC4)nc3)cc([N+](=O)[O-])c2)c(=O)[nH]1`, for which the IC50 in experiment [1], in experiment [2], in experiment [3] and in experiment [4] was greater than 50 µM each time.

On to `CNc1cc(-c2ccc(N3CCN(C(=O)c4cc(Cc5n[nH]c(=O)c6ccccc56)ccc4F)CC3)nc2)cc(C(=O)NCc2c(C)cc(C)[nH]c2=O)c1C`, for which the IC50 is 17.3 µM in experiment [1], greater than 50 µM in experiment [2], greater than 50 µM in experiment [3] and 46 µM in experiment [4].

As to `Cc1cc(C)c(CNC(=O)c2cc(-c3ccc(N4CCN(C(=O)c5cc(Cc6n[nH]c(=O)c7ccccc67)ccc5F)CC4)nc3)ccc2C)c(=O)[nH]1`, the IC50 is 28.3 µM in experiment [1], greater than 50 µM in experiment [2], greater than 50 µM in experiment [3] and 30.2 µM in experiment [4].

With `Cc1cc(C)c(CNC(=O)c2cc(-c3ccc(N4CCN(C(=O)c5cc(Cc6n[nH]c(=O)c7ccccc67)ccc5F)CC4)nc3)cc3c2cnn3C(C)C)c(=O)[nH]1`, the half-maximal inhibitory concentration (IC50) was 17.9 µM in experiment [1], 40.2 µM in experiment [2], greater than 50 µM in experiment [3] and 25.8 µM in experiment [4].

Take `Cc1cc(C)c(CNC(=O)c2cc(-c3ccc(N4CCN(C(=O)c5cc(Cc6n[nH]c(=O)c7ccccc67)ccc5F)CC4)nc3)cc(C(F)(F)F)c2)c(=O)[nH]1`: the IC50 was greater than 50 µM in experiment [1], greater than 50 µM in experiment [2], greater than 50 µM in experiment [3] and 43.4 µM in experiment [4].

`Cc1cc(C)c(CNC(=O)c2cc(-c3ccc(N4CCN(C(=O)c5cc(Cc6n[nH]c(=O)c7ccccc67)ccc5F)CC4)nc3)cc3c2cnn3C)c(=O)[nH]1`: the IC50 in experiment [1], in experiment [2], in experiment [3] and in experiment [4] was greater than 50 µM throughout.

`Cc1cc(C)c(CNC(=O)c2cc(-c3ccc(N4CCN(C(=O)c5cc(Cc6n[nH]c(=O)c7ccccc67)ccc5F)CC4)nc3)cc3c2ccn3C)c(=O)[nH]1`: the IC50 in experiment [1], in experiment [2], in experiment [3] and in experiment [4] was greater than 50 µM in each case.

For the molecule `Cc1cc(C)c(CNC(=O)c2cc(-c3ccc(N4CCN(C(=O)c5cc(Cc6n[nH]c(=O)c7ccccc67)ccc5F)CC4)nc3)cc(NC(C)C)c2C)c(=O)[nH]1`, the IC50 was 16.5 µM in experiment [1], greater than 50 µM in experiment [2], greater than 50 µM in experiment [3] and greater than 50 µM in experiment [4].

Regarding `CCN(C(C)=O)c1cc(-c2ccc(N3CCN(C(=O)c4cc(Cc5n[nH]c(=O)c6ccccc56)ccc4F)CC3)nc2)cc(C(=O)NCc2c(C)cc(C)[nH]c2=O)c1C`, the IC50 in experiment [1] was 9.56 µM; in experiment [2], 26.2 µM; in experiment [3], greater than 50 µM; in experiment [4] it was 18.4 µM.

Take `Cc1cc(C)c(CNC(=O)c2cc(-c3ccc(N4CCN(C(=O)c5cc(Cc6n[nH]c(=O)c7ccccc67)ccc5F)CC4)nc3)cc(NC(=O)CCC(=O)N(C)C)c2C)c(=O)[nH]1`: the IC50 was 8.24 µM in experiment [1], 30.4 µM in experiment [2], greater than 50 µM in experiment [3] and 22.1 µM in experiment [4].

As for `C=C(C)C(=O)Nc1cc(-c2ccc(N3CCN(C(=O)c4cc(Cc5n[nH]c(=O)c6ccccc56)ccc4F)CC3)nc2)cc(C(=O)NCc2c(C)cc(C)[nH]c2=O)c1C`, the IC50 was 2.21 µM in experiment [1], 30.1 µM in experiment [2], greater than 50 µM in experiment [3] and 17.9 µM in experiment [4].

Consider `CCn1ccc2c(C(=O)NCc3c(C)cc(C)[nH]c3=O)cc(-c3ccc(N4CCN(C(=O)c5cc(Cc6n[nH]c(=O)c7ccccc67)ccc5F)CC4)nc3)cc21`, for which the IC50 in experiment [1], in experiment [2], in experiment [3] and in experiment [4] was greater than 50 µM each time.

As to `CCNc1cc(-c2ccc(N3CCN(C(=O)c4cc(Cc5n[nH]c(=O)c6ccccc56)ccc4F)CC3)nc2)cc(C(=O)NCc2c(C)cc(C)[nH]c2=O)c1C`, the IC50 is 9.56 µM in experiment [1], greater than 50 µM in experiment [2], greater than 50 µM in experiment [3] and 32.3 µM in experiment [4].

`Cc1cc(C)c(CNC(=O)c2ccc(C)c(-c3ccc(N4CCN(C(=O)c5cc(Cc6n[nH]c(=O)c7ccccc67)ccc5F)CC4)nc3)c2)c(=O)[nH]1`: the IC50 in experiment [1] was 28.8 µM; in experiment [2] it was greater than 50 µM; in experiment [3], greater than 50 µM; in experiment [4] it was greater than 50 µM.
